This note sets out measurements from US7528138B2, “Pyrazolo[1,5-a]pyrimidines useful as inhibitors of protein kinases” (Vertex Pharmaceuticals Incorporated, priority 2004, dated 2009).

Molecules are shown by their SMILES.

The target in test [1] is T1, Aurora-2 (Homo sapiens, UniProt O14965).
T1 sequence (O14965 1-403): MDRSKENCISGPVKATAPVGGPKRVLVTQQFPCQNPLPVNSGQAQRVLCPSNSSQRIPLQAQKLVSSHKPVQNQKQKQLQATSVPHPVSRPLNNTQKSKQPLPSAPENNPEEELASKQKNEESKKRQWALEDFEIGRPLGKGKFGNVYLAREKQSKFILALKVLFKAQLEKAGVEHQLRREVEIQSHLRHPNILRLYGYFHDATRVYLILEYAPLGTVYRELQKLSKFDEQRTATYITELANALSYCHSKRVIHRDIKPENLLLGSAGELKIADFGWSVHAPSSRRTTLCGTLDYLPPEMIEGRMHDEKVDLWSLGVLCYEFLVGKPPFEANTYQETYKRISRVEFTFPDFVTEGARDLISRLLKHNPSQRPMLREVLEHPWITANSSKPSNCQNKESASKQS
The test is described as follows: Aurora-A (Aurora-2) Inhibition Assay, coupled enzyme assay. The note with it: enzyme inhibition data (Ki), Table 11; read-out: AurA Ki. The class given is biochemical. The protocol:
Compounds are screened for their ability to inhibit Aurora-2 using a standard coupled enzyme assay (Fox et al., Protein Sci., (1998) 7, 2249). Assays are carried out in a mixture of 100 mM Hepes (pH7.5), 10 mM MgCl2, 1 mM DTT, 25 mM NaCl, 2.5 mM phosphoenolpyruvate, 300 μM NADH, 30 μg/ml pyruvate kinase and 10 μg/ml lactate dehydrogenase. Final substrate concentrations in the assay are 400 μM ATP (Sigma Chemicals) and 570 μM peptide (Kemptide, American Peptide, Sunnyvale, Calif.). Assays are carried out at 30° C. and in the presence of 40 nM Aurora-2.
An assay stock buffer solution is prepared containing all of the reagents listed above, with the exception of Aurora-2 and the test compound of interest. 55 μl of the stock solution is placed in a 96 well plate followed by addition of 2 μl of DMSO stock containing serial dilutions of the test compound (typically starting from a final concentration of 7.5 μM). The plate is preincubated for 10 minutes at 30° C. and the reaction initiated by addition of 10 μl of Aurora-2. Initial reaction rates are determined with a Molecular Devices SpectraMax Plus plate reader over a 10 minute time course. IC50 and Ki data are calculated from non-linear regression analysis using the Prism software package (GraphPad Prism version 3.0cx for Macintosh, GraphPad Software, San Diego Calif., USA).

In test [2] the target is T2, Itk (Homo sapiens, UniProt Q08881).
T2 sequence (Q08881 1-620): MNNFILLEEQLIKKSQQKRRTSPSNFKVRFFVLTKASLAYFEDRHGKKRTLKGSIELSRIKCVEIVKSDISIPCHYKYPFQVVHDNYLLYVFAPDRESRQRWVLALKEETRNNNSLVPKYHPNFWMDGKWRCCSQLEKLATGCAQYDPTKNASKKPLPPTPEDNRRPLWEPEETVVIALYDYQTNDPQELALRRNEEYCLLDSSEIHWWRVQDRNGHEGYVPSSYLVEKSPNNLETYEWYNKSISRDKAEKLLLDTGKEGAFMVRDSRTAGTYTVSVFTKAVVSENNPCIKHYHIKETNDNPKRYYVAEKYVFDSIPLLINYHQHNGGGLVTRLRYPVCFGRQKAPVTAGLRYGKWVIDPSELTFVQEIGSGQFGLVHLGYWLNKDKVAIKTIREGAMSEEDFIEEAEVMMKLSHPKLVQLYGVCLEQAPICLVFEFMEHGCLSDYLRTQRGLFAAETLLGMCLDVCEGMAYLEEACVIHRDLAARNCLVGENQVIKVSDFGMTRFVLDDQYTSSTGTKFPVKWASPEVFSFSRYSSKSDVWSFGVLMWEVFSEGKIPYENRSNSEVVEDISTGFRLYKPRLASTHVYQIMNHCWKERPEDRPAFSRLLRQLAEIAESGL
The test is described as follows: ITK Inhibition Assay (Radiometric), radioactive-phosphate incorporation. The test is classed as biochemical. The settings on record: enzyme inhibition data (Ki), Table 11; radiometric or UV assay not stated. The essentials: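 Radiometric 33P incorporation into SAM68 peptide (D332-443) with filter capture and scintillation counting; 10 min pre-incubation then 10 min reaction at 25° C. IC50 format: 30 nM Itk, 15 μM ATP, 2 μM peptide, HEPES pH 7.5. Ki(app) format: 50 nM Itk, 7.5 μM ATP, 3 μM peptide, MOPS pH 7.0.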

Take `Nc1nn2cc(-c3ccc(N4CCNCC4)nc3)cnc2c1-c1ccccn1` [Compound V-151]: the values for the Ki in test [1] and in test [2] were 500 to 5000 nM and less than 500 nM, respectively.
With `Nc1nn2cc(-c3ccc(N4CCC[C@H]4CN4CCCC4)nc3)cnc2c1-c1ccccn1` [Compound V-152], the values for the Ki in test [1] and in test [2] were 500 to 5000 nM and less than 500 nM, respectively.
`Nc1nn2cc(-c3cccc(C(=O)N4CCC[C@H]4CN4CCCC4)n3)cnc2c1-c1ccccn1` [Compound V-154]: the Ki in test [1] and in test [2] was 500 to 5000 nM each time.
Consider `CN(CCCN)C(=O)c1cccc(-c2cnc3c(-c4ccccn4)c(N)nn3c2)n1` [Compound V-155], for which the Ki in test [1] was 500 to 5000 nM; in test [2], less than 500 nM.
As to `COCCNc1ccc(-c2cnc3c(-c4ccccn4)c(N)nn3c2)cn1` [Compound V-156], the Ki in test [1] and in test [2] was 500 to 5000 nM in each case.
Take `CN(C)CCNc1ccc(-c2cnc3c(-c4ccccn4)c(N)nn3c2)cn1` [Compound V-159]: the Ki is 500 to 5000 nM in test [1] and less than 500 nM in test [2].
`CN1CCCN(c2ccc(-c3cnc4c(-c5ccccn5)c(N)nn4c3)cn2)CC1` [Compound V-160]: the Ki in test [1] and in test [2] was 500 to 5000 nM in each case.
As to `Nc1nn2cc(-c3ccc(N4CCC(N)CC4)nc3)cnc2c1-c1ccccn1` [Compound V-165], the inhibitory constant (Ki) in test [1] and in test [2] was less than 500 nM throughout.
Regarding `CCN1CCN(c2ccc(-c3cnc4c(-c5ccccn5)c(N)nn4c3)cn2)CC1` [Compound V-166], the Ki in test [1] was 500 to 5000 nM; in test [2], less than 500 nM.
Turning to `CCN(CC)CCN(C)c1ccc(-c2cnc3c(-c4ccccn4)c(N)nn3c2)cn1` [Compound V-173], the inhibitory constant (Ki) in test [1] is 500 to 5000 nM; in test [2], less than 500 nM.
On to `Nc1nn2cc(-c3cccc(C(=O)N4CCC[C@@H]4CN4CCCC4)n3)cnc2c1-c1ccccn1` [Compound V-175], for which the Ki in test [1] and in test [2] was 500 to 5000 nM in each case.
With `Nc1nn2cc(-c3ccc(N4CCC[C@@H]4CN4CCCC4)nc3)cnc2c1-c1ccccn1` [Compound V-176], the Ki is 500 to 5000 nM in test [1] and less than 500 nM in test [2].
For the compound `Nc1nn2cc(-c3ccc(C(=O)N4CCC[C@H]4CN4CCCC4)cn3)cnc2c1-c1ccccn1` [Compound V-177], the Ki in test [1] and in test [2] was less than 500 nM each time.
Take `Cc1cccc(-c2c(N)nn3cc(-c4ccncc4)cnc23)n1` [Compound V-178]: the Ki in test [1] and in test [2] was less than 500 nM throughout.
On to `Nc1nn2cc(-c3ccncc3)cnc2c1-c1cc(N2CCCCC2)ncn1` [Compound V-179], for which the Ki in test [1] and in test [2] was less than 500 nM in each case.
For `CCN(CC)c1cc(-c2c(N)nn3cc(-c4ccncc4)cnc23)ncn1` [Compound V-180], the Ki in test [1] and in test [2] was less than 500 nM each time.
In the case of `CNc1cc(-c2c(N)nn3cc(-c4ccncc4)cnc23)ncn1` [Compound V-181], the Ki in test [1] and in test [2] was less than 500 nM each time.
In the case of `CC(C)Nc1cc(-c2c(N)nn3cc(-c4ccncc4)cnc23)ncn1` [Compound V-182], the Ki in test [1] and in test [2] was less than 500 nM each time.
As to `Nc1nn2cc(-c3ccncc3)cnc2c1-c1cc(NC2CCCCC2)ncn1` [Compound V-183], the Ki in test [1] and in test [2] was less than 500 nM throughout.
Consider `Nc1nn2cc(-c3ccncc3)cnc2c1-c1cc(NCC2CCCCC2)ncn1` [Compound V-184], for which the Ki in test [1] and in test [2] was less than 500 nM throughout.
Take `CC(C)CNc1cc(-c2c(N)nn3cc(-c4ccncc4)cnc23)ncn1` [Compound V-185]: the Ki in test [1] and in test [2] was less than 500 nM throughout.
On to `CN(C)CCN(C)C(=O)c1ccc(-c2cnc3c(-c4ccccn4)c(N)nn3c2)cc1` [Compound V-188], for which the Ki in test [1] and in test [2] was less than 500 nM throughout.
As to `CNCCN(C)C(=O)c1cccc(-c2cnc3c(-c4ccccn4)c(N)nn3c2)c1` [Compound V-189], the results for the Ki in test [1] and in test [2] were 500 to 5000 nM and less than 500 nM, respectively.
For the compound `CNCCCN(C)C(=O)c1cccc(-c2cnc3c(-c4ccccn4)c(N)nn3c2)c1` [Compound V-190], the Ki in test [1] was 500 to 5000 nM; in test [2], less than 500 nM.
Regarding `CNCCCN(C)C(=O)c1ccc(-c2cnc3c(-c4ccccn4)c(N)nn3c2)cc1` [Compound V-191], the Ki in test [1] and in test [2] was less than 500 nM throughout.
Turning to `Nc1nn2cc(-c3ccc(CO)cc3)cnc2c1-c1ccccn1` [Compound V-194], the inhibition constant Ki in test [1] and in test [2] was less than 500 nM each time.
As to `NCc1ccc(-c2cnc3c(-c4ccccn4)c(N)nn3c2)cc1` [Compound V-195], the Ki in test [1] and in test [2] was less than 500 nM each time.
With `NCc1cccc(-c2cnc3c(-c4ccccn4)c(N)nn3c2)c1` [Compound V-202], the Ki is 500 to 5000 nM in test [1] and less than 500 nM in test [2].
With `CNC(=O)c1cnc2c(-c3ccccn3)c(N)nn2c1` [Compound V-204], the Ki in test [1] and in test [2] was 500 to 5000 nM in each case.
As for `Nc1nn2cc(C(=O)NC3CCCNC3)cnc2c1-c1ccccn1` (centres unmarked) [Compound V-206], the Ki in test [1] and in test [2] was 500 to 5000 nM each time.
For `Nc1nn2cc(-c3ccc(CN4CCOCC4)cc3)cnc2c1-c1ccccn1` [Compound V-208], the Ki in test [1] and in test [2] was less than 500 nM each time.
Regarding `Nc1nn2cc(-c3ccc4[nH]ccc4c3)cnc2c1-c1ccccn1` [Compound V-212], the Ki in test [1] and in test [2] was less than 500 nM each time.
In the case of `CN(C)Cc1ccc(-c2cnc3c(-c4ccccn4)c(N)nn3c2)cc1` [Compound V-214], the Ki in test [1] and in test [2] was less than 500 nM throughout.
For the compound `CN(C)Cc1cccc(-c2cnc3c(-c4ccccn4)c(N)nn3c2)c1` [Compound V-215], the results for the Ki in test [1] and in test [2] were 500 to 5000 nM and less than 500 nM, respectively.
For the compound `COc1ccc(-c2cn3nc(N)c(-c4ccccn4)c3nc2C)cc1` [Compound V-216], the Ki in test [1] and in test [2] was 500 to 5000 nM in each case.
`Nc1nn2cc(-c3ccc(CN4CCNCC4)cc3)cnc2c1-c1ccccn1` [Compound V-217]: the Ki in test [1] and in test [2] was less than 500 nM each time.
For the compound `COc1ccc(-c2cnc3c(-c4ccncc4)c(N)nn3c2)cc1` [Compound V-219], the Ki in test [1] and in test [2] was 500 to 5000 nM each time.
For the compound `Nc1nn2cc(-c3cccc(CO)c3)cnc2c1-c1ccccn1` [Compound V-221], the Ki in test [1] and in test [2] was 500 to 5000 nM each time.
Take `Nc1nn2cc(-c3cccc(N4CCNCC4)c3)cnc2c1-c1ccccn1` [Compound V-222]: the Ki in test [1] and in test [2] was less than 500 nM each time.
In the case of `Nc1nn2cc(-c3cccc(CN4CCNCC4)c3)cnc2c1-c1ccccn1` [Compound V-223], the Ki in test [1] is 500 to 5000 nM; in test [2] it was less than 500 nM.
For the compound `Nc1nn2cc(-c3cccc(CN4CCOCC4)c3)cnc2c1-c1ccccn1` [Compound V-225], the Ki in test [1] and in test [2] was 500 to 5000 nM in each case.
As for `NC1NN2C=C(c3cccc(CN4CC[C@@H](N)C4)c3)C=NC2=C1c1ccccn1` (some centres unmarked) [Compound V-226], the Ki was 500 to 5000 nM in test [1] and less than 500 nM in test [2].
For `NC1NN2C=C(c3cccc(CN4CC[C@H](N)C4)c3)C=NC2=C1c1ccccn1` (some centres unmarked) [Compound V-227], the Ki is 500 to 5000 nM in test [1] and less than 500 nM in test [2].
